Test results reported in paper PMC8556396, “Statin-mediated disruption of Rho GTPase prenylation and activity inhibits respiratory syncytial virus infection” (Communications Biology, 2021).
Structures can show the parent of a compound that is named as a salt.

Tested on: RSV-GFP
Assay: microbe, parasite or virus in culture
Format: cell-based, Respiratory syncytial virus
Conditions: for RSV-GFP inhibition (%): 10.0 µM, HEp-2, RSV-GFP MOI 0.5, single replicate; for inhibition at 10 µM: human respiratory syncytial virus, HEp-2, read-out: RSV-GFP inhibition (%); for RSV inhibition in the screen: HEp-2, RSV-GFP
Method: The following morning, cells were washed twice with serum-free EMEM and treated with RSV-GFP (MOI 0.5) in a minimal volume of serum-free media for 90 min under frequent agitation. Unbound virus was then removed and replaced with fresh serum-containing EMEM. All drug additions were performed 2 h post-viral exposure, unless otherwise stated.
Automated quantification of infection rates from fluorescent images were performed in CellProfiler (v2.2.0)[86]. Major steps in the image analysis pipeline included: (1) background subtraction and smoothing, (2) segmentation of nuclei, (3) segmentation of GFP-fluorescent area, (4) object masking, and (5) measurement of nuclear number, size, and intensity. Infection rate was quantified from the ratio of nuclei within GFP-fluorescent area to the total number of nuclei (Fig. 1b). This method of analysis accounts for in vitro syncytium formation induced by RSV, whereby a single infected cell may arise from the fusion of multiple cells. Mean nuclear fluorescent intensity and size was quantified as a measure of cell viability.
The MicroSource […] Collection (Discovery Systems Inc.) consisting of 2400 compounds was screened using the previously outlined RSV-GFP infection assay protocol. Robot-assisted addition of drugs was performed within 1 h of RSV-GFP infection and infection rates were assayed 48 h p.i. Drugs were provided as 10 mM stocks in DMSO and serial diluted to a final concentration of 10 µM, resulting in a final DMSO concentration of 0.1% v/v. […] Hits were selected based on the criteria that: (a) the tested drug caused a >50% reduction in infection rate and (b) was not overtly cytotoxic (<10% change in mean nuclear intensity relative to DMSO control). Z-factors were calculated on a per-plate basis to monitor assay quality.

Compound | inhibition at 10 µM | other results
CC(=O)OC1CCC23C(=O)OC45CCC(C6=CC(=O)OC6)C4(C)CCC2C5CCC3(O)C1 (centres unmarked) [Strophanthidinic acid lactone acetate] |  | RSV-GFP inhibition (%): 82.33%
Cc1cc(N)c2ccccc2[n+]1CCCCCCCCCC[n+]1c(C)cc(N)c2ccccc21 [Dequalinium chloride] | 63.8% | 
N=C(N)c1ccc(OCCCCCOc2ccc(C(=N)N)cc2)cc1 [Pentamidine isethionate] | 60.2% | 
CC[C@@]1(O)C(=O)OCc2c1cc1n(c2=O)Cc2cc3ccccc3nc2-1 [Camptothecin] | 55.7% | 
CO[C@H]1[C@H](O)[C@H](O[C@H]2CC[C@@]3(C=O)[C@H](CC[C@@H]4[C@@H]3CC[C@]3(C)[C@@H](C5=CC(=O)OC5)CC[C@]43O)C2)O[C@@H](C)[C@@H]1O [Peruvoside] | 98.2% | 
CCC(=O)O[C@H]1CC[C@H]2[C@@H]3CCC4=CC(=O)CC[C@]4(C)[C@H]3CC[C@]12C [Testosterone propionate] | 84.7% | 
CCCCCCCCCc1ccc(OCCOCCOCCOCCOCCOCCOCCOCCOCCO)cc1 [Nonoxynol-9] | 69.2% | 
CC[C@@]1([C@@H]2O[C@@H]([C@H]3O[C@@](O)(CO)[C@H](C)C[C@@H]3C)C[C@@H]2C)CC[C@H]([C@]2(C)CC[C@]3(C[C@H](O)[C@@H](C)[C@@H]([C@@H](C)[C@@H](OC)[C@H](C)C(=O)O)O3)O2)O1 [Monensin A] | 93.9% | 
CC(=O)Oc1cc2c(c(C)c1OC(C)=O)CC=C1[C@@]2(C)CC[C@@]2(C)C3C[C@](C)(C(=O)O)CC[C@]3(C)CC[C@]12C (some centres unmarked) [Dihydrocelastryl diacetate] |  | RSV-GFP inhibition (%): 89.96%
C#C[C@]1(O)CC[C@H]2[C@@H]3CCC4=C(CCC(=O)C4)[C@H]3CC[C@@]21C [Norethynodrel] | 75.4% | 
CC(C)n1c(/C=C/C(O)CC(O)CC(=O)O)c(-c2ccc(F)cc2)c2ccccc21 (centres unmarked) [Fluvastatin] | 73.2% | RSV inhibition in the screen: inhibit RSV at low micromolar concentrations
C=C[C@@]1(C)CC(=O)[C@]2(O)[C@@]3(C)[C@@H](O)CCC(C)(C)[C@@H]3[C@H](O)[C@H](OC(C)=O)[C@@]2(C)O1 [Colforsin] | 72.5% | 
COc1c(C)c2c(c(O)c1C/C=C(\C)CCC(=O)O)C(=O)OC2 [Mycophenolic acid] | 98.8% | 
COc1cc2c(cc1OC)[C@@H]1C(=O)c3c(O)cc4c(c3O[C@@H]1CO2)C=CC(C)(C)O4 [Alpha-toxicarol] |  | RSV-GFP inhibition (%): 63.58%
C[C@H]1O[C@@H](O[C@H]2[C@@H](O)C[C@H](O[C@H]3[C@@H](O)C[C@H](O[C@H]4CC[C@@]5(C)[C@H](CC[C@@H]6[C@@H]5CC[C@]5(C)[C@@H](C7=CC(=O)OC7)[C@@H](O)C[C@]65O)C4)O[C@@H]3C)O[C@@H]2C)C[C@H](O)[C@@H]1O [Gitoxin] | 85.7% | 
C[C@@H]1C[C@@H]([C@H](O)CC2CC(=O)NC(=O)C2)C(=O)[C@@H](C)C1 [Cycloheximide] | 75% | 
Cc1c(O)c(O)cc2c1CC=C1[C@@]2(C)CC[C@@]2(C)[C@@H]3C[C@](C)(C(=O)O)CC[C@]3(C)CC[C@]12C [Dihydrocelastrol] | 82.6% | 
CN(C)c1ccc2nc3ccc(=[N+](C)C)cc-3sc2c1 [Methylene blue] | 67.8% | 
C[C@@H]1O[C@@H](O[C@@H]2C=C3CC[C@@H]4[C@H](CC[C@]5(C)[C@@H](c6ccc(=O)oc6)CC[C@]45O)[C@@]3(C)CC2)[C@H](O)[C@H](O)[C@H]1O [Proscillaridin] | 81.6% | 
CC[C@H]1CN2CCc3cc(OC)c(OC)cc3[C@@H]2C[C@@H]1C[C@H]1NCCc2cc(OC)c(OC)cc21 [Emetine dihydrochloride] | 100% | 
COc1c(C)c2c(c(O)c1C/C=C(\C)CCC(=O)OCCN1CCOCC1)C(=O)OC2 [Mycophenolate mofetil] | 98.4% | 
Oc1c(Cl)cc(Cl)c(Cl)c1Cc1c(O)c(Cl)cc(Cl)c1Cl [Hexachlorophene] | 83.2% | 
CC1=C2C[C@H]3[C@@H](CC=C4C[C@@H](O)CC[C@@]43C)[C@@H]2CC[C@]12O[C@@H]1C[C@H](C)CN[C@H]1[C@H]2C [Cyclopamine] | 86% | 
CCc1c2c(nc3ccc(OC(=O)N4CCC(N5CCCCC5)CC4)cc13)-c1cc3c(c(=O)n1C2)COC(=O)[C@]3(O)CC.Cl [Irinotecan hydrochloride] |  | RSV-GFP inhibition (%): 55.56%

Compound | inhibition at 10 µM | other results
CC(=O)O[C@H]1CC[C@@]2(C)[C@H](CC[C@@H]3[C@@H]2CC[C@]2(C)[C@@H](C4=CC(=O)OC4)[C@@H](OC(C)=O)C[C@]32O)C1 [Gitoxigenin diacetate] | 91.8% | 
CC1(C)C(=O)C=C[C@]2(C)[C@H]3CC[C@@]4(C)[C@H](c5ccoc5)OC(=O)[C@H]5O[C@]54[C@]3(C)C=C[C@@H]12 [7-Desacetoxy-6,7-dehydrogedunin] |  | RSV-GFP inhibition (%): 69.38%
C#C[C@]1(OC(C)=O)CC[C@H]2[C@@H]3CCC4=CC(=O)CC[C@@H]4[C@H]3CC[C@@]21C [Norethindrone acetate] | 54.2% | 
O=C(O)C[C@H](O)C[C@H](O)/C=C/c1c(C2CC2)nc2ccccc2c1-c1ccc(F)cc1 [Pitavastatin calcium] | 63.4% | RSV inhibition in the screen: inhibit RSV at low micromolar concentrations
CCCCCCCCCCCCCCCC[N+](C)(C)C [Cetrimonium bromide] | 71.2% | 
CC(=O)[C@H]1CC[C@H]2[C@@H]3CCC4=CC(=O)CC[C@]4(C)[C@H]3CC[C@]12C [Progesterone] | 50.5% | 
C[C@@H]1O[C@@H](O[C@H]2C[C@@H](O)[C@]3(CO)[C@H]4[C@H](O)C[C@]5(C)[C@@H](C6=CC(=O)OC6)CC[C@]5(O)[C@@H]4CC[C@]3(O)C2)[C@H](O)[C@H](O)[C@H]1O [Ouabain] | 100% | 
Nc1c2ccccc2nc2ccccc12 [Aminacrine] | 58.3% | 
O=c1cc(-c2ccc(O)cc2)oc2ccc(O)cc12 [6,4’-Dihydroxyflavone] | 75.3% | 
C[C@]12CC[C@H](O)C[C@H]1CC[C@@H]1[C@@H]2C[C@@H](O)[C@]2(C)[C@@H](C3=CC(=O)OC3)CC[C@]12O [Digoxigenin] | 85.1% | 
CN(C)c1ccc(C(=C2C=CC(=[N+](C)C)C=C2)c2ccc(N(C)C)cc2)cc1 [Gentian violet] | 86.3% | 
C#CC1(O)CC[C@H]2[C@@H]3CCC4=CC(=O)CC[C@@H]4[C@H]3CC[C@@]21CC (mixture of isomers) [Norgestrel] | 64.1% | 
O=C1[O][Pt]2([NH][C@@H]3CCCC[C@H]3[NH]2)[O]C1=O [Oxaliplatin] |  | RSV-GFP inhibition (%): 88.7%
CC[C@@H](C(=O)[C@@H](C)[C@@H](O)[C@H](C)[C@@H]1O[C@@H]([C@@H](CC)C(=O)O)CC[C@@H]1C)[C@H]1O[C@]2(C=C[C@@H](O)[C@]3(CC[C@@](C)([C@H]4CC[C@](O)(CC)[C@H](C)O4)O3)O2)[C@H](C)C[C@@H]1C [Salinomycin, sodium] |  | RSV-GFP inhibition (%): 96.45%
COC(=O)[C@]1(C)CC[C@]2(C)CC[C@]3(C)C4=CC=C5C(=CC(=O)C(O)=C5C)[C@]4(C)CC[C@@]3(C)[C@@H]2C1 [Pristimerin] | 74.1% | 
Benzalkonium chloride |  | RSV-GFP inhibition (%): 77.34%
Antimycin A1 |  | RSV-GFP inhibition (%): 79.49%
COc1ccc(-c2cc(=O)c3ccccc3o2)cc1 [4’-Methoxyflavone] | 59.9% | 
C[C@]12CCC(=O)C=C1[C@@H]1C[C@@H]1[C@H]1[C@@H]3[C@@H]4C[C@@H]4[C@@]4(CCC(=O)O4)[C@@]3(C)CC[C@@H]12 [Drospirenone] | 68.3% | 
C[C@]12CC[C@H]3[C@@H](CC[C@]4(O)C[C@@H](O)CC[C@]34C=O)[C@@]1(O)CC[C@@H]2C1=CC(=O)OC1 [Strophanthidin] | 90.4% | 
CC(=O)O[C@H]1C[C@H](O[C@H]2[C@@H](O)C[C@H](O[C@H]3[C@@H](O)C[C@H](O[C@H]4CC[C@@]5(C)[C@H](CC[C@@H]6[C@@H]5C[C@@H](O)[C@]5(C)[C@@H](C7=CC(=O)OC7)CC[C@]65O)C4)O[C@@H]3C)O[C@@H]2C)O[C@H](C)[C@H]1O[C@@H]1O[C@H](CO)[C@@H](O)[C@H](O)[C@H]1O [Lanatoside C] | 100% | 
Cc1nc2ccccc2n1Cc1ccc(Cl)cc1 [Chlormidazole] | 68.5% | 
CCCCC(CC)CNC(=N)NC(=N)NCCCCCCNC(=N)NC(=N)NCC(CC)CCCC (centres unmarked) [Alexidine hydrochloride] | 66.8% | 
C#C[C@]1(OC(C)=O)CC[C@H]2[C@@H]3CCC4=CC(=NO)CC[C@@H]4[C@H]3CC[C@@]21CC (mixture of isomers) [Norgestimate] | 55% | 
